Assay results published in ChEMBL document CHEMBL2046438, “Indole alkaloids from Geissospermum reticulatum” (J Nat Prod, 2012).
Converted amounts (≈) assume the structure as drawn. The source made the active and inactive calls. The calls are words filed in the database; no cut-off is given here.

Key:
[1] = Cytotoxicity against CHO cells assessed as cell viability after 48 hrs by MTT colorimetric assay; format: cell-based, Cricetulus griseus; settings: chinese hamster
Leishmania infantum = test: Leishmanicidal activity against promastigote form of Leishmania infantum PB75 after 48 hrs by modified colorimetric method; format: functional; settings: PB75, 48 h
Trypanosoma cruzi [2] = test: Antitrypanosomal activity against epimastigote form of Trypanosoma cruzi Y after 72 hrs by modified MTT colorimetric assay; format: functional
Trypanosoma cruzi [3] = test: Antitrypanosomal activity against epimastigote form of Trypanosoma cruzi Y at 1 to 100 ug/ml after 72 hrs by modified MTT colorimetric assay; format: functional, organism-based
CHO = test: Cytotoxicity against CHO cells assessed as cell viability at 1 to 100 ug/ml after 48 hrs by MTT colorimetric assay; format: cell-based, Cricetulus griseus; settings: chinese hamster

Q: Which GI50 at 48 h [1] does the source give for `CC1CS(=O)(=O)CCN1/N=C/c1ccc([N+](=O)[O-])o1` (stereo not drawn) [NIFURTIMOX] here?
A: 13.9 µg/mL (≈ 48.4 µM)

Q: With `C[C@@H]1[C@H](O)[C@@H](C)/C=C/C=C/C=C/C=C/C=C/C=C/C=C/[C@H](O[C@@H]2O[C@H](C)[C@@H](O)[C@H](N)[C@@H]2O)C[C@@H]2O[C@](O)(C[C@@H](O)C[C@@H](O)[C@H](O)CC[C@@H](O)C[C@@H](O)CC(=O)O[C@H]1C)C[C@H](O)[C@H]2C(=O)O` [AMPHOTERICIN B] as the compound, how does the GI50 at 48 h [1] read?
A: 10.3 µg/mL (≈ 11.1 µM)

Q: For `CCCC(=O)N1c2c(O)cccc2[C@]23CCN4CC[C@H](C[C@H]12)C1=CCO[C@]143`, which GI50 (Leishmania infantum) is on record?
A: 52.2 µg/mL (≈ 142 µM)

Q: Which GI50 (Trypanosoma cruzi [2]) does the source give for `CC[C@@]12CCCN3CC[C@]4(c5cccc(O)c5N(C(C)=O)[C@@H]4CC1)[C@H]32` here?
A: 41.7 µg/mL (≈ 122 µM)

Q: And the GI50 (Leishmania infantum)?
A: 7.7 µg/mL (≈ 22.6 µM)

Q: And the GI50 at 48 h [1]?
A: 16.7 µg/mL (≈ 49.1 µM)

Q: With `C/C=C1/C(=O)[C@@]23CCN(C)CC[C@H]1C[C@@H]2N(C(C)=O)c1c3ccc(OC)c1O` as the compound, how does the GI50 (Leishmania infantum) read?
A: > 100 µg/mL

Q: Which GI50 (Leishmania infantum) does the source give for `COc1ccc2c(c1O)N(C(C)=O)[C@H]1C[C@@H]3CCN(C)CC[C@@]21C(=O)[C@]31O[C@H]1C` here?
A: > 100 µg/mL

Q: Which GI50 (Leishmania infantum) does the source give for `C/C=C1\C(=O)[C@@]23CCN(C)CC[C@H]1C[C@@H]2N(C(C)=O)c1c3ccc(OC)c1O` here?
A: > 100 µg/mL

Q: Which GI50 (Leishmania infantum) does the source give for `COc1cc(O)c2c(c1)[C@]13CCN4CC[C@H](C[C@@H]1N2C(C)=O)C1=CCO[C@]143` here?
A: > 100 µg/mL

Q: Which Activity (Trypanosoma cruzi [3]) does the source give for `CCc1ccc2c3[nH]c4ccccc4c3cc[n+]2c1.[Cl-]` [FLAVOPEREIRINE] here?
A: Active

Q: What about the Activity (CHO) of the same compound?
A: Toxic

Q: Which GI50 (Leishmania infantum) does the source give for `CC(=O)N1c2c(O)cccc2[C@]23CCN4CC[C@H](C[C@H]12)C1=CCO[C@]143` [GEISSOSPERMIDINE] here?
A: > 100 µg/mL
